What was measured:
[1] = Half life of arzoxifene in human patients; assay type: in vivo
[2] = tested on: Hartley albino guinea pigs (spontaneous cartilage degeneration / osteoarthritis); experiment: Guinea Pig Spontaneous Osteoarthritis Study; assay type: in vivo
From the text: Hartley albino guinea pigs undergo spontaneous cartilage degeneration, and they have been used as a convenient small animal model system to study osteoarthritis (OA) and have potential physiologic relevance to the OA that spontaneously develops in humans. Disease-related morphologic changes observed in the guinea pigs are similar to the histopathologic alternations in the joints of humans with OA. Other significant similarities between the OA in Hartley guinea pigs and that in humans are also known. Huebner, Collagenase 1 and Collagenase 3 Expression in a Guinea Pig Model of Osteoarthritis, 41 Arthritis Rheum. 877-890 no. 5(May 1998). The Hartley guinea pig spontaneous model can be used to study the effects of Arzoxifene on OA.
Hartley strain guinea pigs, approximately three month old males, are used for the study. (In one study, 5.5 month old males were used, as indicated by FIG. 8). The Hartley albino guinea pigs are provided ad lib access to food (Ca 1.1%, p 0.6%, Vitamin D 3400 IU/kg) and water. The guinea pigs are dosed subcutaneously with Arzoxifene at 0.03, 0.1, 0.3, and/or 0.5 mg/kg/d for about two to four months. The study generally includes 15 guinea pigs per treatment group, except for the baseline, which generally includes 10 guinea pigs. Urine and serum are to be collected at 0, 2, 4, 6, 12, and 16 weeks for biomarker evaluation. The right knee joints are harvested for histology and the left knee joint for surface osteoarthritis scoring.
The effects observed on OA lesion areas by quantitative image analyses are illustrated by the graph in FIG. 3. The Zones of the lesion in the knee joint are illustrated by FIG. 1. Osteoarthritis changes are further evaluated by histologically quantitative analyses on paraffin embedded sections. The severities of joint damage are assessed for the depth of chondrocyte lesion and loss of proteoglycan on a score 0-5 for increasing severity on each third of the cartilage surface (Animla molde of osteoarthritis, A. M. Bendele (J Musculoskel Neuron Interact 2001: 1: 363-376)). Osteophyte development also evaluated by measuring the size.

[3] = tested on: ovariectomized Sprague-Dawley rats; experiment: Intermittent Dosing Analysis of Arzoxifene in Ovariectomized Rats (Prevention Model), femur QCT; assay type: in vivo, rat; details: Ovx rats, 1 mg/kg oral
Description: Arzoxifene will be administered using several different dosing intervals for 5 weeks to 6 month-old rats, one week after ovariectomy.
Live phase: A total of about 78 female Sprague-Dawley rats (Harlan Sprague Dawley Inc) are used for this study design. 72 of the rats are ovariectomized (Ovx) at 6 months of age and 6 rats are used as sham-ovariectomized controls. Rats were maintained on a 12 hour light/dark cycle at 22° C. with ad lib access to food (TD 89222 with 0.5% Ca and 0.4% P, Teklad, Madison, Wis.) and water. Sham and Ovx controls are orally administered a vehicle of 20% hydroxy propyl-β-cyclodextrin (Aldrich Chemical Co). Arzoxifene (1 mg/kg) treated rats are dosed daily, every other day (QOD), every third day (Q3D), weekly on Monday (QW), or twice a week on Monday and Friday (M/F), as indicated. Each group contains 6 animals/grp and the treatment duration is about 5 weeks.
Analyses: Intact femora are removed and cleaned of soft-tissue and preserved in 50% ethanol/saline at 4° C. Femora are centered with respect to the QCT gantry (Research M, Stratec). A coronal scout scan of the specimen is generated first in 2 Dimension (2D) and then femora are scanned to measure bone mineral density (BMD, mg/cc), bone mineral content (BMC, mg), and cross-sectional area (mm2).

[4] = Half life of arzoxifene in laboratory animals; assay type: in vivo
[5] = tested on: postmenopausal women with osteopenia; experiment: OA biomarkers on a subset of samples from the Phase 2 osteopenia study; assay type: in vivo, human; details: no selection for OA
Description: A Phase 2, multicenter, randomized, double-blind, placebo- and raloxifene-controlled study of arzoxifene enrolled 219 postmenopausal women with osteopenia (defined as bone mineral density [BMD] t-score at the lumbar spine and/or femoral neck >−2.5 and ≦−1). The study assessed the effects of arzoxifene compared with raloxifene HCl (60 mg/day) and placebo on biochemical markers of bone metabolism, cardiovascular disease risk markers, and on overall safety.
CTXII was not evaluated as the assay is validated for urine specimens, which were not available.

half life [1]: longer than one day
half life [4]: consistent with a daily dosing regimen
SMILES: COc1ccc(-c2sc3cc(O)ccc3c2Oc2ccc(OCCN3CCCCC3)cc2)cc1 [arzoxifene]
OA progression based on OA surface area and osteophyte development ([2]; 0.5 mg/kg/d subcutaneous, one study (FIG. 8, 5.5 month old males)): did not have a statistical effect on OA progression
effect on preventing or slowing the progression of OA ([2]; Hartley guinea pigs, subcutaneous, about two to four months, OA lesion areas by image analysis (FIG. 3)): positive effect on preventing or slowing the progression of OA
OA progress: OA surface area and osteophyte development ([2]; lower doses tested (0.03, 0.1, 0.3 mg/kg/d subcutaneous), FIGS. 4-7): favorable effect on preventing or delaying the OA progress
loss of BMD, distal femur metaphysis by QCT ([3]; daily, about 5 weeks (FIG. 9)): prevented
loss of BMD, distal femur metaphysis by QCT ([3]; every other day (QOD), about 5 weeks (FIG. 9)): prevented
loss of BMD, distal femur metaphysis by QCT ([3]; every third day (Q3D), about 5 weeks (FIG. 9)): prevented
loss of BMD, distal femur metaphysis by QCT ([3]; twice a week Monday and Friday (M/F), about 5 weeks (FIG. 9)): prevented
loss of BMD, distal femur metaphysis by QCT ([3]; weekly on Monday (QW), about 5 weeks, QW BMD intermediate between Ovx and Sham and less than Sham (FIG. 9)): only partially efficacious
COMP biomarker difference between placebo and arzoxifene [5]: modest but significant biomarker differences
human cartilage glycoprotein-39 (YKL-40) biomarker difference between placebo and arzoxifene [5]: modest but significant biomarker differences
